Results taken from patent US20240246948A1, “BENZAMIDE DERIVATIVE, METHOD FOR PREPARING SAME, AND PHARMACEUTICAL COMPOSITION FOR PREVENTION OR TREATMENT OF CANCER CONTAINING SAME AS ACTIVE INGREDIENT” (HK INNO.N CORPORATION, priority 2021, published 2024).

Tests used:
[1] = target: Ba/F3 EGFR L858R/T790M/C797S (LTC) (Homo sapiens, UniProt P00533, T790M/C797S/L858R, cells depend on it); assay: Cell growth inhibitory ability in Ba/F3 cells overexpressing EGFR L858R/T790M/C797S (MTS, CellTiter 96 AQueous); type: cell-based; conditions: 72 hours, MTS absorbance at 490 nm, read-out: Ba/F3 EGFR triple mutant L858R/T790M/C797S, IC50
Protocol: (§1) In order to confirm that the compound represented by formula 1 provided in one aspect of the present invention acts as an allosteric inhibitor against WT and mutant of EGFR, the cell growth inhibitory effect was evaluated in BaF3 cells overexpressing WT and mutant of EGFR.
(§2) More specifically, the cell growth inhibitory ability of the compound of the present invention to the Ba/F3 cell line overexpressing WT and mutant of EGFR was evaluated using CellTiter 96 AQueous Non-Radioactive Cell Proliferation Assay system of Promega, as follows. AQueous Non-Radioactive Cell Proliferation Assay is a method of confirming cell growth inhibitory ability by measuring the degree of color development by reducing MTS (3-(4,5-Dimethylthiazol-2-yl)-5-(3-carboxymethoxyphenyl)-2-(4-sulfophenyl)-2H-tetrazolium) to Formazan by a reductase secreted by mitochondria present in living cells in a cell culture state. The Ba/F3 EGFR WT and Ba/F3 EGFR del19/T790M/C797S (DTC), Ba/F3 EGFR L858R (L), Ba/F3 EGFR L858R/T790M (LT), and Ba/F3 EGFR L858R/T790M/C797S (LTC) mutation cell lines used in the present invention were purchased from the laboratory of Professor Byung-cheol Cho, Yonsei University. All cell lines were cultured in RPMI supplemented with 10% FBS, 1% penicillin-streptomycin and 1 μg/ml of puromycine in a 5% CO2 incubator at 37° C.
(§3) The cell survival inhibitory effect of the compound according to each EGFR mutation was analyzed by the following analysis method.
(§4) BaF3 cells were distributed in a 96-well cell culture plate at the density of 2000˜10000 cells/100 μL/well, and cultured for 24 hours. Thereafter, the concentration of the compound represented by formula 1 provided in one aspect of the present invention was prepared to double the final concentrations of 0.1 nM, 1 nM, 10 nM, 100 nM, 1000 nM and 10000 nM, and the compound was treated to the plate (100 μL/well). The plate was reacted in an incubator at 37° C. for 72 hours. Then, MTS was treated to the plate (20 μL/well) and the plate was incubated at 37° C. for 2 to 4 hours. Finally, after measuring the absorbance at 490 nm using a microplate reader, the relative value compared to 0 nM (% Control) was obtained to confirm the cell growth inhibitory ability of the compound. The measured values were analyzed using Prism program (version 8.0, Graphpad Software, Inc.), and the IC50 value (Inhibition concentration 50), an indicator of the cell growth inhibitory ability of the compound, was calculated.

[2] = target: Ba/F3 EGFR L858R/T790M (LT) (Homo sapiens, UniProt P00533, T790M/L858R, cells depend on it); assay: Cell growth inhibitory ability in Ba/F3 cells overexpressing EGFR L858R/T790M (MTS, CellTiter 96 AQueous); type: cell-based; conditions: 72 hours, MTS absorbance at 490 nm, read-out: Ba/F3 EGFR double mutant L858R/T790M, IC50
Protocol: as §1, §2, §3, §4

GI50 [1] | GI50 [2] | Compound
< 30 nM | – | Cc1cc(C(=O)N[C@@H](c2cc3ccccc3[nH]2)c2cc(F)ccc2O)cc(-c2ncc(N3CCC(N4CCCCC4)CC3)cn2)c1 [Example 50, (R)-3-(5-([1,4′-bipiperidine]-1′-yl)pyrimidine-2-yl)-N-((5-fluoro-2-hydroxyphenyl)(1H-indole-2-yl)methyl)-5-methylbenzamide]
> 200 nM | – | Cc1cc(C(=O)N[C@@H](c2cc3ccccc3[nH]2)c2cc(F)ccc2O)cc(-c2ncc(N3CCC(CN4CCCC4)CC3)cn2)c1 [Example 52, (R)—N-((5-fluoro-2-hydroxyphenyl)(1H-indole-2-yl)methyl)-3-methyl-5-(5-(4-(pyrrolidine-1-ylmethyl)piperidine-1-yl)pyrimidine-2-yl)benzamide]
< 30 nM | < 30 nM | Cc1cc(C(=O)N[C@@H](c2cc3ccccc3[nH]2)c2cc(F)ccc2O)cc(-c2ccc(N3CCC(N)CC3)cn2)c1 [Example 17, (R)-3-(5-(4-aminopiperidine-1-yl)pyridine-2-yl)-N-((5-fluoro-2-hydroxyphenyl)(1H-indole-2-yl)methyl)-5-methylbenzamide]
> 200 nM | > 200 nM | NC1CCN(c2ccc(-c3cc(OC(F)(F)F)cc(C(=O)N[C@@H](c4cc5ccccc5[nH]4)c4cc(F)ccc4O)c3)cc2)CC1 [Example 11, (R)-4′-(4-aminopiperidine-1-yl)-N-((5-fluoro-2-hydroxyphenyl)(1H-indole-2-yl)methyl)-5-(trifluoromethoxy)-[1,1′-biphenyl]-3-carboxamide]
< 30 nM | < 30 nM | Cc1cc(C(=O)N[C@@H](c2cc3ccccc3[nH]2)c2cc(F)ccc2O)cc(-c2ccc(N3CCC(N)CC3)cc2C)c1 [Example 23, (R)-4′-(4-aminopiperidine-1-yl)-N-((5-fluoro-2-hydroxyphenyl)(1H-indole-2-yl)methyl)-2′,5-dimethyl-[1,1′-biphenyl]-3-carboxamide]
> 200 nM | > 200 nM | COc1ccc(F)cc1[C@@H](NC(=O)c1ccnc(-c2ccc(N3CCC(N)CC3)cc2)c1)c1cc2ccccc2[nH]1 [Example 15, (R)-2-(4-(4-aminopiperidine-1-yl)phenyl)-N-((5-fluoro-2-methoxyphenyl)(1H-indole-2-yl)methyl)isonicotinamide]
> 200 nM | – | Cc1cc(C(=O)N[C@@H](c2cc3ccccc3[nH]2)c2cc(F)ccc2O)cc(-c2ncc(N3CCC(C(=O)Nc4ccccc4)CC3)cn2)c1 [Example 55, (R)-1-(2-(3-(((5-fluoro-2-hydroxyphenyl)(1H-indole-2-yl)methyl)carbamoyl)-5-methylphenyl)pyrimidine-5-yl)-N-phenylpiperidine-4-carboxamide]
> 200 nM | > 200 nM | CC(C)(C)c1cc(C(=O)N[C@@H](c2cc3ccccc3[nH]2)c2cc(F)ccc2O)cc(-c2ccc(N3CCC(N)CC3)cc2)c1 [Example 4, (R)-4′-(4-aminopiperidine-1-yl)-5-(tert-butyl)-N-((5-fluoro-2-hydroxyphenyl)(1H-indole-2-yl)methyl)-[1,1′-biphenyl]-3-carboxamide]
< 30 nM | < 30 nM | Cc1cc(C(=O)N[C@@H](c2cc3ccccc3[nH]2)c2cc(F)ccc2O)cc(-c2cc(C)c(N3CCC(N)CC3)cn2)c1 [Example 33, (R)-3-(5-(4-aminopiperidine-1-yl)-4-methylpyridine-2-yl)-N-((5-fluoro-2-hydroxyphenyl)(1H-indole-2-yl)methyl)-5-methylbenzamide]
< 30 nM | < 30 nM | Cc1cc(C(=O)NC(c2cc3ccccc3[nH]2)c2cc(F)ccc2O)cc(-c2ccc(N3CCC(N)CC3)cc2)c1 (stereo not drawn) [Example 32, 4′-(4-aminopiperidine-1-yl)-N-((5-fluoro-2-hydroxyphenyl)(1H-indole-2-yl)methyl)-5-methyl-[1,1′-biphenyl]-3-carboxamide]
> 200 nM | 30 to 200 nM | NC1CCN(c2ccc(-c3cc(C(=O)N[C@@H](c4cc5ccccc5[nH]4)c4cc(F)ccc4O)ccn3)cc2)CC1 [Example 14, (R)-2-(4-(4-aminopiperidine-1-yl)phenyl)-N-((5-fluoro-2-hydroxyphenyl)(1H-indole-2-yl)methyl)isonicotinamide]
< 30 nM | < 30 nM | Cc1cc(C(=O)N[C@@H](c2cc3ccccc3[nH]2)c2cc(F)ccc2O)cc(-c2ncc(N3CCC(N(C)C)CC3)cn2)c1 [Example 39, 3-[5-[4-(dimethylamino)-1-piperidyl]pyrimidine-2-yl]-N—[(R)-(5-fluoro-2-hydroxy-phenyl)-(1H-indole-2-yl)methyl]-5-methyl-benzamide]
> 200 nM | – | Cc1cc(C(=O)N[C@@H](c2cc3ccccc3[nH]2)c2cc(F)ccc2O)cc(-c2ncc(N3CCC(CN4CCOCC4)CC3)cn2)c1 [Example 51, (R)—N-((5-fluoro-2-hydroxyphenyl)(1H-indole-2-yl)methyl)-3-methyl-5-(5-(4-(morpholinomethyl)piperidine-1-yl)pyrimidine-2-yl)benzamide]
30 to 200 nM | < 30 nM | Cc1cc(C(=O)N[C@@H](c2cc3ccc(F)cc3[nH]2)c2cc(F)ccc2O)cc(-c2ccc(N3CCC(N)CC3)cc2)c1 [Example 26, (R)-4′-(4-aminopiperidine-1-yl)-N-((6-fluoro-1H-indole-2-yl)(5-fluoro-2-hydroxyphenyl)methyl)-5-methyl-[1,1′-biphenyl]-3-carboxamide]
30 to 200 nM | – | Cc1cc(C(=O)N[C@@H](c2cc3ccccc3[nH]2)c2cc(F)ccc2O)cc(-c2ncc(N3CCC(n4cncn4)CC3)cn2)c1 [Example 48, (R)-3-(5-(4-(1H-1,2,4-triazole-1-yl)piperidine-1-yl)pyrimidine-2-yl)-N-((5-fluoro-2-hydroxyphenyl)(1H-indole-2-yl)methyl)-5-methylbenzamide]
< 30 nM | – | CNC1CCN(c2cnc(-c3cc(C)cc(C(=O)N[C@@H](c4cc5ccccc5[nH]4)c4cc(F)ccc4O)c3)nc2)CC1 [Example 54, (R)—N-((5-fluoro-2-hydroxyphenyl)(1H-indole-2-yl)methyl)-3-methyl-5-(5-(4-(methylamino)piperidine-1-yl)pyrimidine-2-yl)benzamide]
< 30 nM | – | Cc1cc(C(=O)N[C@@H](c2cc3ccccc3[nH]2)c2cc(F)ccc2O)cc(-c2ncc(N3CCC(O)CC3)cn2)c1 [Example 49, (R)—N-((5-fluoro-2-hydroxyphenyl)(1H-indole-2-yl)methyl)-3-(5-(4-hydroxypiperidine-1-yl)pyrimidine-2-yl)-5-methylbenzamide]
< 30 nM | – | Cc1cc(C(=O)N[C@@H](c2cc3ccccc3[nH]2)c2cc(F)ccc2O)cc(-c2ncc(N3C4CCC3CN(C)C4)cn2)c1 [Example 46, N—((R)-(5-fluoro-2-hydroxyphenyl)(1H-indole-2-yl)methyl)-3-methyl-5-(5-(3-methyl-3,8-diazabicyclo[3.2.1]octane-8-yl)pyrimidine-2-yl)benzamide]
> 200 nM | – | Cc1cc(C(=O)N[C@@H](c2cc3ccccc3[nH]2)c2cc(F)ccc2O)cc(-c2ncc(N3CCC(n4cccc4)CC3)cn2)c1 [Example 47, (R)-3-(5-(4-(1H-pyrrole-1-yl)piperidine-1-yl)pyrimidine-2-yl)-N-((5-fluoro-2-hydroxyphenyl)(1H-indole-2-yl)methyl)-5-methylbenzamide]
< 30 nM | – | Cc1cc(C(=O)N[C@@H](c2cc3ccccc3[nH]2)c2cc(F)ccc2O)cc(-c2ncc(N3CC[C@@H](N(C)C)C3)cn2)c1 [Example 53, 3-[5-[(3R)-3-(dimethylamino)pyrrolidine-1-yl]pyrimidine-2-yl]-N—[(R)-(5-fluoro-2-hydroxy-phenyl)-(1H-indole-2-yl)methyl]-5-methyl-benzamide]
> 200 nM | – | COCCOc1ccc(N2CCN(c3cnc(-c4cc(C)cc(C(=O)N[C@@H](c5cc6ccccc6[nH]5)c5cc(F)ccc5O)c4)nc3)CC2)cc1 [Example 56, (R)—N-((5-fluoro-2-hydroxyphenyl)(1H-indole-2-yl)methyl)-3-(5-(4-(4-(2-methoxyethoxy)phenyl)piperazine-1-yl)pyrimidine-2-yl)-5-methylbenzamide]

Compound | GI50 [1] | GI50 [2]
(R)-3-(6-((4-(dimethylamino)piperidine-1-yl)methyl)pyridine-3-yl)-N-((5-fluoro-2-hydroxyphenyl)(1H-indole-2-yl))methyl)-5-methylbenzamide [Example 43] | 30 to 200 nM | < 30 nM
